Here are results for five compounds from paper PMC6842947, “Enhanced Antiviral Activity of Human Surfactant Protein D by Site-Specific Engineering of the Carbohydrate Recognition Domain” (Frontiers in Immunology, 2019).

pIC50: −log10 of the molar value.

Assay in all cases: Saccharide competition of SP-D binding to BSA-mannan coated plates
One test addresses T1, pSP-D (Sus scrofa, UniProt Q9N1X4).
T1 sequence (Q9N1X4 21-378): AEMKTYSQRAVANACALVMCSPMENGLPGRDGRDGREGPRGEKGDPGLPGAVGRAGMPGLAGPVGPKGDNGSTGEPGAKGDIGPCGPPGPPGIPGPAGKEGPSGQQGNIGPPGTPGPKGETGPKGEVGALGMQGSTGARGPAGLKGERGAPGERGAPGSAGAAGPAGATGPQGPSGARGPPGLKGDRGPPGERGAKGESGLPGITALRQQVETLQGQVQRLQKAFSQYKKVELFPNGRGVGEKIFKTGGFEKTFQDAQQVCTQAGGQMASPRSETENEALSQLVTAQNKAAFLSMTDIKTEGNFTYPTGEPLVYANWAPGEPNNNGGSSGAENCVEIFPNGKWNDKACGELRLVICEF
Details: species or system porcine.

Another test concerns the target T2, hSP-D (Homo sapiens, UniProt P35247).
T2 construct: The full-length recombinant collectins pSP-D and hSP-D were constructed as published; made in house; host or cells: HEK293 (HEK293E, transient transfection)
T2 sequence (P35247 21-375): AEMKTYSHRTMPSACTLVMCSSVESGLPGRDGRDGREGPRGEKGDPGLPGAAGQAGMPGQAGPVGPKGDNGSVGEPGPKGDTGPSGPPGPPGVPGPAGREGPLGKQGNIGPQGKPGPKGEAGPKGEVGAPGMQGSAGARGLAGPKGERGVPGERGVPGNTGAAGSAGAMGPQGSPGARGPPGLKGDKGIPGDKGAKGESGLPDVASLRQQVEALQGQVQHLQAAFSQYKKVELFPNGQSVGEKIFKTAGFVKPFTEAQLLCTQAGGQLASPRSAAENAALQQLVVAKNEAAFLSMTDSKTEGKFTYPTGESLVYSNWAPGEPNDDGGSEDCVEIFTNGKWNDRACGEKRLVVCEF

The next test addresses T3, iSP-D (Homo sapiens, UniProt P35247, D344N/D350N/E309K/INS346GSS/K307Q/V271E).
T3 construct: Full-length recombinant iSP-D was generated based upon the full-length hSP-D cDNA clone; made in house; host or cells: HEK293 (HEK293E, transient transfection)
T3 sequence (P35247 with tags, fused parts or gaps V271E/K307Q/E309K/D344N/INS346GSS/D350N): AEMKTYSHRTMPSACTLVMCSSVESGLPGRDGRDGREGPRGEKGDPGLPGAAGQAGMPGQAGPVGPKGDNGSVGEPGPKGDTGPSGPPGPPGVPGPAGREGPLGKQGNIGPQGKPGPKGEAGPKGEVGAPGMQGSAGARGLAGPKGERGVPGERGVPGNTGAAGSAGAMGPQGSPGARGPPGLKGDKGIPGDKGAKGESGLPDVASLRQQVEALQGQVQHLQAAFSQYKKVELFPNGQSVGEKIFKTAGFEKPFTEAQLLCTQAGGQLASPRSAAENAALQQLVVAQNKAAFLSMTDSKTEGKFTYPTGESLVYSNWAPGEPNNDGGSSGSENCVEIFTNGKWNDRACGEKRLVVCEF

A word on the pIC50: it is the IC50 on a negative log10 scale, so that one unit is a factor of ten. With `O=C(CO)[C@@H](O)[C@H](O)[C@H](O)CO` [Fructose, fructose], the values for the pIC50 at pSP-D, at hSP-D and at iSP-D were 2.55, 2.51 and 2.32, respectively.
The matching figures for `CC(=O)N[C@@H]1C(O)O[C@H](CO)[C@@H](O)[C@@H]1O` (stereo partly shown) [ManNAc, N-acetylmannosamine]: 2.10, 2.66 and 2.51.
On to `OC[C@H]1OC(O)[C@H](O)[C@@H](O)[C@@H]1O` (stereo partly drawn) [D-Glucose, D-glucose], for which the pIC50 was 2.55 at pSP-D, 2.34 at hSP-D and 2.11 on iSP-D.
In the case of `O[C@H]1[C@H](O)[C@@H](O)[C@H](O)[C@@H](O)[C@H]1O` [Myo-Inositol, myo-inositol], the “IC50-value with iSP-D as compared to hSP-D” value on iSP-D (ratio of IC50 for inhibition of binding to BSA-mannan) is “three times higher”.
For `O=C[C@H](O)[C@@H](O)[C@@H](O)[C@H](O)CO` [D-Galactose, D-galactose], the pIC50 on pSP-D was 2.19; on hSP-D it was 1.87; on iSP-D, 1.87.
